Measurements as given in patent publication US11957766B2, “HNQO1-activatable fluorescent probe for imaging cancer cells in-vitro and in-vivo” (Texas Tech University System, priority 2019, dated 2024).

Tests used:
DAOY and T98G cells = experiment: Flow cytometry of NQ-DCP activation; format: cell-based, human; conditions: 10 μM, λem=586/40, about 1×10^4 cells
Protocol: Applicability of NQ-DCP for Flow Cytometry. Flow cytometry assays were used to assess the applicability of the NQ-DCP probe to rapidly detect and quantify tumor cells containing hNQO1. The probe was incubated with cell suspensions (DAOY and T98G) for 30 min and a flowcytometry was used to measure the fluorescence (λem=586/40) in about 1×10^4 individual cells.
Cell Culture, Fluorescence Imaging, and Flow Cytometry Analysis. Brain tumor cells and astrocytes were grown in Dulbecco's modified Eagle's (DMEM) medium containing 10% Fetal Bovine Serum and 1% penicillin/streptomycin in a humidified atmosphere of 5% CO2 at 37° C. For fluorescence imaging, initially, cells were seeded into 6-well plate and cultured overnight in respective media at 37° C. Media was replaced with fresh medium containing 10 μM NQ-DCP and incubated at 37° C. for 60 min and then the medium was replaced with PBS and live cells were imaged using a fluorescence microscope. For inhibitor study, cells were pretreated with NQO1 inhibitor ES936 (100 nM) for 6 h before adding the NQ-DCP. For determining endogenous hNQO1 activity in cancer cells using flow cytometry, about 10×10^4 cells were incubated with 10 μM of NQ-DCP for 60 min and were analyzed using flow cytometry.

A549 and H460 cells = experiment: Flow cytometry of NIR-ASM in NQO1-positive cancer cell lines; format: cell-based, human; conditions: 60 min, about 1×10^4 cells
Protocol: Detection of NQO1 in live cells. Inspired by the excellent biocompatibility, the inventors investigated its performance in both NQO1 expressing cancer cells (A549, H460) and NQO1 non-expressing normal cells (IMR90, HUVEC). All cells were incubated with NIR-ASM (10 μM) for 60 min, washed with PBS and were imaged under a confocal microscope after counterstaining the nuclei with Hoechst 33342 (FIG. 12A). […] The higher expression of NQO1 protein in A549 and H460 cells and its absence in normal cells, IMR90 and HUVEC as found with western blot analysis correlated with the probe reactivity in cells (FIG. 12B). […] Cell sorting using flow cytometry is a well-established technology in clinical diagnostics and biomedical research. To assess the applicability of the NIR-ASM to rapidly detect and quantify in both cancer and normal cells based on NQO1 expression, the probe was incubated with cell suspensions for 60 min, and about 1×10^4 cells were analyzed on a flow cytometer.
Flow cytometry analysis. The endogenous NQO1 activity of cancer cells and normal cells was determined by flow cytometry after NIR-ASM exposure. Cells were incubated with 10 μM of NIR-ASM for 60 min, harvested by trypsinization and washed with PBS. For inhibitor study, cells were pretreated with NQO1 inhibitor ES936 (100 nM) for 6 h before adding the NIR-ASM. About 1×10^4 cells were analyzed by flow cytometry (λex=488 nm).

[1] = NIR-ASM tolerability and toxicity in vivo; set-up: species or system CD1 mice; conditions: 5 mg/kg five times a week for five weeks
Protocol: Assessment of NIR-ASM biocompatibility. Inspired by the excellent photophysical properties of NIR-ASM in monitoring the NQO1 activity in vitro, the inventors determined the biocompatibility of NIR-ASM both in vitro and in vivo before using for endogenous applications. […] Further, to evaluate NIR-ASM tolerability and toxicity in vivo, CD1 mice were grouped for the administration of vehicle (PEG:H2O:EtOH) alone or 5 mg/kg of NIR-ASM five times a week for five weeks. The average mouse weights were monitored as a surrogate marker to the toxicity.
Hematoxylin and eosin (H&E) staining. The hematoxylin and eosin staining were performed as described previously. Briefly, freshly dissected tissues were snap freeze and store at −20° C. for overnight. Frozen tissues were cut into […] slices, the sections were stained in Mayer's Hematoxylin and Eosin solution. Finally, the sections were dehydrated and mounted with Permount in a fume hood. The results were analyzed under a phase-contrast Olympus microscope (Olympus America Inc).

[2] = system: Lewis Lung carcinoma (LLC) tumors; experiment: In vivo and ex vivo NIRF imaging with NIR-ASM in Lewis Lung carcinoma (LLC) lung cancer model; set-up: species or system C57BL/6 mice
Text: Whether still in-situ or already disseminated, early diagnosis of cancer is an essential requirement for successful therapy. Although NQO1 is expressed at higher levels in cancers compared to a diminished or absent status in normal tissues, the diagnostic potential of existing NQO1 specific fluorescent probes has not been realized. Therefore, the inventors evaluated the non-invasive diagnostic ability of NIR-ASM in a metastatic syngeneic lung cancer model to mimic the clinical situation. Lung cancer was established in C57BL/6 mice by injecting Lewis Lung carcinoma (LLC) cells (0.5×10^6 per animal) intravenously. This cell line is highly tumorigenic and is primarily used to model metastasis as well as evaluate the efficacy of chemotherapeutic agents in vivo.^44 The LLC cells have ˜80 units of NQO1 activity compared to <10 units in healthy mouse lungs.^45 Two weeks after the implantation, the animals received NIR-ASM (5 mg/kg) intravenously. […] There are several routes for drug elimination from the body and the majority of drugs are eliminated by pathways that involve the kidneys.
In vivo bioimaging. The animal study protocol was approved by the Institutional Animal Use and Care Committee (IACUC), Texas Tech University Health Sciences Center, Protocol number: 07050. All experimental protocols used in this study were approved by IACUC, Texas Tech University Health Sciences Center and all the methods were carried out according to the committee guidelines. Female athymic nude mice (nu/nu, 4-6 weeks) were purchased from Charles River Laboratories (Wilmington, MA, USA). BALB/c57 mice were provided by Dr. Constantinos Mikelis of our University. To establish A549 or MDA-MB-231 xenografts, a total of 5×10^6 cells (in 0.1 ml of serum-free media and Matrigel (1:1)) were subcutaneously injected into the flanks of the mice. For developing orthotopic lung cancer models, LLC cells (0.5×10^6) were intravenously injected into the tail veins of female BALB/c57 mice. All animals were monitored for activity, physical condition, body weight, and tumor growth. To detect endogenous NQO1 activity, NIR-ASM was dissolved in a vehicle of composition, PEG-300:EtOH:saline (60:30:10, v/v/v) and given intravenously through tail vein injection. The animals were imaged at different time intervals with excitation/emission filters of 500/640 nm using the IVIS Lumina XR Imaging system. At the end of the experiments, the xenografted tumors, hearts, lungs, livers, kidneys, spleens, and brains were removed and imaged to confirm the signal locations. Fluorescence represented in log values of radiance is photons per second per square centimeter per steradian.

SMILES	flow cytometry fluorescence signal (DAOY and T98G cells)	flow cytometry fluorescence signal, NQO1-positive cells (A549 and H460 cells)	histological features (brain, heart, lung, liver, spleen, kidney; H&E) ([1]; versus control)	average body weights ([1]; versus vehicle)	time of maximum fluorescence intensity ([2]; 5 mg/kg intravenous) [min]	NIRF signal intensity of tumor-bearing lungs compared to other selected organs ([2]; 5 mg/kg intravenously, two weeks after implantation)	route of elimination ([2]; fluorescence observed in kidneys during ex vivo NIRF imaging)	fluorescence in the lungs of healthy mice ([2]; non-tumor-bearing mouse, intravenous NIR-ASM)
CC1=C(C)C(=O)C(C(C)(C)CC(=O)Oc2ccc(/C=C/C3=CC(=C(C#N)C#N)CC(C)(C)C3)cc2)=C(C)C1=O [NQ-DCP]	high-intensity unimodal distribution of signal							
CC1=C(C)C(=O)C(C(C)(C)CC(=O)Nc2ccc(/C=C/C3=CC(=C(C#N)C#N)CC(C)(C)C3)cc2)=C(C)C1=O [NIR-ASM, (E)-N-(4-(2-(3-(dicyanomethylene)-5,5-dimethylcyclohex-1-en-1-yl)vinyl)phenyl)-3-methyl-3-(2,4,5-trimethyl-3,6-dioxocyclohexa-1,4-dien-1-yl)butanamide]		high-intensity unimodal distribution of signals	no significant differences	no remarkable changes	30	more than 100 fold	renal excretion might play an important role	no fluorescence observed
